Assay results: patent US20240083886A1, “HETEROCYCLIC GLP-1 AGONISTS” (Gasherbrum Bio, Inc., priority 2020, published 2024)

molecular target: GLP-1 Receptor (Homo sapiens, UniProt P43220); experiment: GLP-1R agonist cAMP stimulation assay; assay type: cell-based; details: not given
Procedure: Activation of GLP-1 receptor is known to stimulate cyclic AMP (cAMP) production in cells which indicates primary coupling to the Gαs subunit of the G protein heterotrimeric complex.
To optimize functional activity directed toward Gαs coupling, a HEK293/CRE-Luc cell line developed by HDB stably expressing the GLP-1 Receptor was used. 200× concentration of compound working solutions were prepared (Agilent Technologies Bravo) with ½ log serial dilution in 384-well Echo LDV plate (Labcyte, Cat #LP-0200). 50 nL/well 200× concentration of compound working solutions were moved to 384-well white low volume plate (Greiner, Cat #784075) using Labcyte ECHO550. 1×10^5 cells/mL HEK293/GLP1R/CRE-LUC(HD Biosciences) cell suspensions prepared with assay buffer[DPBS containing 0.5 mM IBMX(Sigma, Cat #15879) and 0.1% BSA (GENVIEW, Cat #FA016-100 g)], 10 uL cell suspensions were added to each well of previous generated assay plate which already contains 50 nl compound at 200×concentration using ThermoFisher Multidrop Combi (1000 cells/well). Seal the plate and incubate at 37° C. with 5% CO2 for 30 min.
After incubation the cAMP assay signal was generated using cAMP dynamic 2 Kit (Cisbio). 5 μL cAMP-d2 working solution was added to each well, followed with 5 μL Anti-cAMP antibody-cryptate working solution added to each well using ThermoFisher Multidrop Combi. Incubate at room temperature for 1 hour protected from light. Read the fluorescence at 665 and 615 nm with Reader PerkinElmer EnVision.
% Activity=100%×(mean RLU of test sample−mean RLU of vehicle control)/(mean RLU of MAX control−mean RLU of vehicle control))

Chain of GLP-1 Receptor (P43220 24-463, species assumed): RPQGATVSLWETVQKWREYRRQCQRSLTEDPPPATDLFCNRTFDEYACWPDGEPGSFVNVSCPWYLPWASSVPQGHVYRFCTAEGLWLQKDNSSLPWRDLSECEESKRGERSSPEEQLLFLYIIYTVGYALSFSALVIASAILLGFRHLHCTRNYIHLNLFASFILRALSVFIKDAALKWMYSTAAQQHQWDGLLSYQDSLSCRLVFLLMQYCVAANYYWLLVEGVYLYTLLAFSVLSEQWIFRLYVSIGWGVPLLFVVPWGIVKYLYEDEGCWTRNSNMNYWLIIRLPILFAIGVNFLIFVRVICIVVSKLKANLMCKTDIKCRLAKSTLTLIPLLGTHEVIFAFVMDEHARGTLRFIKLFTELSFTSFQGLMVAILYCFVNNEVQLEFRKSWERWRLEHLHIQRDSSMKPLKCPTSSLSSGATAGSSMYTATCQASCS

Row | EC50 | SMILES
1 | 0.79 nM | Cn1cc(-c2ccc3c(c2)nc(CN2CCC(Oc4ccnc(Cc5ccc(Cl)cc5)n4)CC2)n3C[C@@H]2CCO2)nn1 [Compound 130a, 2-{[4-({2-[(4-chlorophenyl)methyl]pyrimidin-4-yl}oxy)piperidin-1-yl]methyl}-5-(1-methyl-1H-1,2,3-triazol-4-yl)-1-{[(2S)-oxetan-2-yl]methyl}-1H-1,3-benzodiazole]
2 | 0.036 nM | FC(F)(F)c1nnc(-c2cc3nc(CN4CCC(Oc5ccnc(Cc6ccc(Cl)cc6)n5)CC4)n(C[C@@H]4CCO4)c3cn2)[nH]1 [Compound 150a, 2-[(4-chlorophenyl)methyl]-4-({1-[(3-{[(2S)-oxetan-2-yl]methyl}-6-[5-(trifluoromethyl)-4H-1,2,4-triazol-3-yl]-3H-imidazo[4,5-c]pyridin-2-yl)methyl]piperidin-4-yl}oxy)pyrimidine]
3 | 0.25 nM | Cc1nnc(-c2cc3nc(CN4CCC(Oc5nc(Cc6ccc(Cl)cc6)ncc5F)CC4)n(C[C@@H]4CCO4)c3cn2)[nH]1 [Compound 163a, 2-[(4-chlorophenyl)methyl]-5-fluoro-4-[(1-{[6-(5-methyl-4H-1,2,4-triazol-3-yl)-3-{[(2S)-oxetan-2-yl]methyl}-3H-imidazo[4,5-c]pyridin-2-yl]methyl}piperidin-4-yl)oxy]pyrimidine]
4 | 1.5 nM | Fc1cc(Cl)ccc1Cc1ncc(F)c(OC2CCN(Cc3nc4cc(-c5nnc[nH]5)ncc4n3C[C@@H]3CCO3)CC2)n1 [Compound 169a, 2-[(4-chloro-2-fluorophenyl)methyl]-5-fluoro-4-({1-[(3-{[(2S)-oxetan-2-yl]methyl}-6-(4H-1,2,4-triazol-3-yl)-3H-imidazo[4,5-c]pyridin-2-yl)methyl]piperidin-4-yl}oxy)pyrimidine]

same assay, conditions: HEK293/GLP1R/CRE-LUC cells, cAMP dynamic 2 Kit (Cisbio), 30 min incubation at 37° C.; read-out: EC50

Row | EC50 | SMILES
5 | 5.9 nM | O=C(Nc1ccc2c(c1)nc(CN1CCC(Oc3ccnc(Cc4ccc(Cl)cc4F)n3)CC1)n2C[C@@H]1CCO1)c1ccc(C2CC2)nc1 [Compound 117a, N-(2-{[4-({2-[(4-chloro-2-fluorophenyl)methyl]pyrimidin-4-yl}oxy)piperidin-1-yl]methyl}-1-{[(2S)-oxetan-2-yl]methyl}-1H-1,3-benzodiazol-5-yl)-6-cyclopropylpyridine-3-carboxamide]
6 | 0.65 nM | Fc1cc(Cl)ccc1Cc1ncc(F)c(OC2CCN(Cc3nc4cc(-c5nnc(C(F)(F)F)[nH]5)nnc4n3C[C@@H]3CCO3)CC2)n1 [Compound 180a, 2-[(4-chloro-2-fluorophenyl)methyl]-5-fluoro-4-({1-[(7-{[(2S)-oxetan-2-yl]methyl}-3-[5-(trifluoromethyl)-4H-1,2,4-triazol-3-yl]-7H-imidazo[4,5-c]pyridazin-6-yl)methyl]piperidin-4-yl}oxy)pyrimidine]
7 | 2.7 nM | COCCOc1ccc(C(=O)Nc2ccc3c(c2)nc(CN2CCC(Oc4ccnc(Cc5ccc(Cl)cc5F)n4)CC2)n3C[C@@H]2CCO2)cn1 [Compound 115a, N-(2-{[4-({2-[(4-chloro-2-fluorophenyl)methyl]pyrimidin-4-yl}oxy)piperidin-1-yl]methyl}-1-{[(2S)-oxetan-2-yl]methyl}-1H-1,3-benzodiazol-5-yl)-6-(2-methoxyethoxy)pyridine-3-carboxamide]
8 | 1.1 nM | Cc1ccc(C(=O)Nc2ccc3c(c2)nc(CN2CCC(Oc4ccnc(Cc5ccc(Cl)cc5)n4)CC2)n3C[C@@H]2CCO2)cn1 [Compound 104a, N-(2-{[4-({2-[(4-chlorophenyl)methyl]pyrimidin-4-yl}oxy)piperidin-1-yl]methyl}-1-{[(2S)-oxetan-2-yl]methyl}-1H-1,3-benzodiazol-5-yl)-6-methylpyridine-3-carboxamide]
9 | 0.081 nM | Fc1cc(Cl)ccc1Cc1ncc(F)c(OC2CCN(Cc3nc4cc(-c5nnc(C(F)(F)F)[nH]5)ncc4n3C[C@@H]3CCO3)CC2)n1 [Compound 168a, 2-[(4-chloro-2-fluorophenyl)methyl]-5-fluoro-4-({1-[(3-{[(2S)-oxetan-2-yl]methyl}-6-[5-(trifluoromethyl)-4H-1,2,4-triazol-3-yl]-3H-imidazo[4,5-c]pyridin-2-yl)methyl]piperidin-4-yl}oxy)pyrimidine]
10 | 41 nM | Fc1cc(Cl)ccc1Cc1cccc(OC2CCN(Cc3nc4cc(-c5nnc(C(F)(F)F)[nH]5)ncc4n3C3CCOCC3)CC2)n1 [Compound 191, 2-[(4-chloro-2-fluorophenyl)methyl]-6-[(1-{[3-(oxan-4-yl)-6-[5-(trifluoromethyl)-4H-1,2,4-triazol-3-yl]-3H-imidazo[4,5-c]pyridin-2-yl]methyl}piperidin-4-yl)oxy]pyridine]
11 | 15 nM | O=c1[nH]c(-c2ccc3c(c2)nc(CN2CCC(Oc4cccc(Cc5ccc(Cl)cc5F)n4)CC2)n3C[C@@H]2CCO2)no1 [Compound 109a]
12 | 12 nM | O=C(O)c1ccc2c(c1)nc(CN1CCC(Oc3nc(Cc4ccc(Cl)cc4F)ncc3F)CC1)n2C[C@@H]1CCO1 [Compound 165a, 2-{[4-({2-[(4-chloro-2-fluorophenyl)methyl]-5-fluoropyrimidin-4-yl}oxy)piperidin-1-yl]methyl}-1-{[(2S)-oxetan-2-yl]methyl}-1H-1,3-benzodiazole-5-carboxylic acid]
13 | 0.2 nM | Fc1cc(Cl)ccc1Cc1nccc(OC2CCN(Cc3nc4cc(-c5nnc(C(F)(F)F)[nH]5)nnc4n3C[C@@H]3CCO3)CC2)n1 [Compound 182a, 2-[(4-chloro-2-fluorophenyl)methyl]-4-({1-[(7-{[(2S)-oxetan-2-yl]methyl}-3-[5-(trifluoromethyl)-4H-1,2,4-triazol-3-yl]-7H-imidazo[4,5-c]pyridazin-6-yl)methyl]piperidin-4-yl}oxy)pyrimidine]
14 | 0.18 nM | Cc1ccc(C(=O)Nc2ccc3c(c2)nc(CN2CCC(Oc4ccnc(Cc5ccc(Cl)cc5F)n4)CC2)n3C[C@@H]2CCO2)cn1 [Compound 113a, N-(2-{[4-({2-[(4-chloro-2-fluorophenyl)methyl]pyrimidin-4-yl}oxy)piperidin-1-yl]methyl}-1-{[(2S)-oxetan-2-yl]methyl}-1H-1,3-benzodiazol-5-yl)-6-methylpyridine-3-carboxamide]
15 | 0.17 nM | O=c1[nH]c(-c2cc3nc(CN4CCC(Oc5nc(Cc6ccc(Cl)cc6F)ncc5F)CC4)n(C[C@@H]4CCO4)c3cn2)no1 [Compound 171a, 3-(2-{[4-({2-[(4-chloro-2-fluorophenyl)methyl]-5-fluoropyrimidin-4-yl}oxy)piperidin-1-yl]methyl}-3-{[(2S)-oxetan-2-yl]methyl}-3H-imidazo[4,5-c]pyridin-6-yl)-4,5-dihydro-1,2,4-oxadiazol-5-one]
16 | 12.2 nM | CC(=O)Nc1ccc2c(c1)nc(CN1CCC(Oc3cccc(Cc4ccc(Cl)cc4F)n3)CC1)n2C[C@@H]1CCO1 [Compound 160a]
17 | 1.8 nM | O=c1[nH]c(-c2cnc3c(c2)nc(CN2CCC(Oc4ccnc(Cc5ccc(Cl)cc5)n4)CC2)n3C[C@@H]2CCO2)no1 [Compound 144a, 3-(2-{[4-({2-[(4-chlorophenyl)methyl]pyrimidin-4-yl}oxy)piperidin-1-yl]methyl}-3-{[(2S)-oxetan-2-yl]methyl}-3H-imidazo[4,5-b]pyridin-6-yl)-4,5-dihydro-1,2,4-oxadiazol-5-one]
18 | 0.54 nM | Fc1cc2c(cc1-c1nnc(C(F)(F)F)[nH]1)nc(CN1CCC(Oc3ccnc(Cc4ccc(Cl)cc4)n3)CC1)n2C[C@@H]1CCO1 [Compound 122a, 2-{[4-({2-[(4-chlorophenyl)methyl]pyrimidin-4-yl}oxy)piperidin-1-yl]methyl}-6-fluoro-1-{[(2S)-oxetan-2-yl]methyl}-5-[5-(trifluoromethyl)-4H-1,2,4-triazol-3-yl]-1H-1,3-benzodiazole]
19 | 13 nM | FC1(F)CCN(Cc2cccc(OC3CCN(Cc4nc5cc(-c6nnc(C(F)(F)F)[nH]6)ncc5n4C[C@@H]4CCO4)CC3)n2)CC1 [Compound 184a, 2-[(4,4-difluoropiperidin-1-yl)methyl]-6-({1-[(3-{[(2S)-oxetan-2-yl]methyl}-6-[5-(trifluoromethyl)-4H-1,2,4-triazol-3-yl]-3H-imidazo[4,5-c]pyridin-2-yl)methyl]piperidin-4-yl}oxy)pyridine]
20 | 0.082 nM | O=c1[nH]c(-c2cc3nc(CN4CCC(Oc5ccnc(Cc6ccc(Cl)cc6)n5)CC4)n(C[C@@H]4CCO4)c3cn2)no1 [Compound 145a, 3-(2-{[4-({2-[(4-chlorophenyl)methyl]pyrimidin-4-yl}oxy)piperidin-1-yl]methyl}-3-{[(2S)-oxetan-2-yl]methyl}-3H-imidazo[4,5-c]pyridin-6-yl)-4,5-dihydro-1,2,4-oxadiazol-5-one]
21 | 1.1 nM | N#CC1(Cn2c(CN3CCC(Oc4ccnc(Cc5ccc(Cl)cc5)n4)CC3)nc3cc(-c4nnc(C(F)(F)F)[nH]4)ccc32)CC1 [Compound 157, 1-[(2-{[4-({2-[(4-chlorophenyl)methyl]pyrimidin-4-yl}oxy)piperidin-1-yl]methyl}-5-[5-(trifluoromethyl)-4H-1,2,4-triazol-3-yl]-1H-1,3-benzodiazol-1-yl)methyl]cyclopropane-1-carbonitrile]
